US20060189576A1, “Substituted vitamin d analogues and their therapeutic uses” (priority 2003, published 2006)

Experiments:
[1] = molecular target: T1, hDBP (Homo sapiens, UniProt P02774); assay: Affinity for human DBP: competition with [3H]1α,25(OH)2D3; format: binding; conditions: percentage activity (at 50% of the dose response) in comparison with 1α,25(OH)2D3 (=100%)
T1 sequence (P02774 17-474): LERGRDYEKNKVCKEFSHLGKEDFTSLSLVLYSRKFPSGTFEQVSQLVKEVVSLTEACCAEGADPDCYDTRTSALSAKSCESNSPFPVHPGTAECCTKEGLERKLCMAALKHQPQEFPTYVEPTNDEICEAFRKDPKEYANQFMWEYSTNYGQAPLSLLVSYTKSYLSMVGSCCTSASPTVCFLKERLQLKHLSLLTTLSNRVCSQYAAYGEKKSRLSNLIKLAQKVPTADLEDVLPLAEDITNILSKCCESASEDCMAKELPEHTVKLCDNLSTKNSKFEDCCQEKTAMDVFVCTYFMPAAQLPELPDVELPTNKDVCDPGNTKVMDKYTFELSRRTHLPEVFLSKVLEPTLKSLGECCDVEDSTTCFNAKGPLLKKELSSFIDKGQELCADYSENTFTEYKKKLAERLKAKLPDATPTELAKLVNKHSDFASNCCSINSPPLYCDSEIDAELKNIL
Method: Phase separation was then obtained by the addition of 0.5 ml of cold dextran-coated charcoal.

[2] = for IN VIVO STUDIES Osteocalcin serum: mice, daily intraperitoneal injection 7 consecutive days, percentage activity vs 1α,25(OH)2D3 (=100%)
Method: Eight weeks old, male NMRI mice were obtained from the Proefdierencentrum of Leuven (Belgium) and fed a vitamin D-replete diet (0.2% calcium, 1% phosphate, 2000 U vitamin D/kg; Hope Farms, Woerden, The Netherlands). […] The control group was injected with vehicle (arachis oil). The average weight of each group of 6 mice was determined at the beginning and at the end of the experiment. The following parameters were evaluated: serum calcium, serum osteocalcin, femur calcium and urinary calcium. Serum and urinary calcium were measured by a microcolorimetric assay (Sigma, St. Louis, Mo.). Femurs were removed and femur calcium content was measured in HCl-dissolved bone ash (obtained by heating for 24 h in an oven at 100° C.), using the same technique as for serum and urinary calcium.

[3] = test system: MCF-7 cells; assay: MCF-7 cell proliferation ([3H]thymidine incorporation); format: cell-based; conditions: for IN VITRO STUDIES MCF-7: antiproliferative action, percentage activity vs 1α,25(OH)2D3 (=100%)
Method: To evaluate the effect of on cell proliferation, malignant MCF-7 cells were cultured in DMEM/nut. mix. […] Cultures were maintained at 37° C. in a humidified atmosphere of 5% CO2 in air. MCF-7 cells were seeded at 5×10^3 cells/well in the above described medium in 96-well microtiter plates in a final volume of 0.2 ml per well. Triplicate cultures were performed. […] Then, 1 μCi [^3H]thymidine was added to each well and cells were harvested after 4 h incubation with a Packard harvester and measured by the Packard Topcount System (Packard, Meriden, USA).

[4] = molecular target: T2, vitamin D receptor (Sus scrofa, UniProt A3RGC1); conditions: percentage activity (at 50% of the dose response) in comparison with 1α,25(OH)2D3 (=100%)
T2 sequence (A3RGC1 1-427): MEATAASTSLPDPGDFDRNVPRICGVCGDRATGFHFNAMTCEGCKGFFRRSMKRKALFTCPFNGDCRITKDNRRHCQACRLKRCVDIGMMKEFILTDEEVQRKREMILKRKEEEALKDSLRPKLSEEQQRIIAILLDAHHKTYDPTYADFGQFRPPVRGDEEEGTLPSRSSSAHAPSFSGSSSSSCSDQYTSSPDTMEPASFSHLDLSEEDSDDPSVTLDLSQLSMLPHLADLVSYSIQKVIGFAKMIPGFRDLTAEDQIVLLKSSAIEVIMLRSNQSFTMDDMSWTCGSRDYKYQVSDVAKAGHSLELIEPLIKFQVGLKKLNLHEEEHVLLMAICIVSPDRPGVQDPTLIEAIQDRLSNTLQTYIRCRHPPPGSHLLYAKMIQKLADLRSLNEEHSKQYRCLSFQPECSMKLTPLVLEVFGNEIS
Method: The incubation was performed at 4° C. for 20 h and phase separation was obtained by addition of dextran-coated charcoal.

[5] = test system: HL-60 cells; assay: HL-60 cell differentiation (NBT reduction assay); format: cell-based; conditions: for prodifferentiating effect (in words): HL 60 cells; for IN VITRO STUDIES HL 60: potency to differentiate HL 60 cells, percentage activity vs 1α,25(OH)2D3 (=100%)
Method: To evaluate the effect on cell differentiation HL-60 cells were seeded at 4×10^4 cells/ml in 25 cm^2 Falcon tissue chambers using RPMI 1640 medium supplemented with 20% FCS and gentamycin (50 μg/ml) in a final volume of 5 ml. Cultures were maintained at 37° C. in a humidified atmosphere of 5% CO2 in air. […] After 4 days of culture, the dishes were shaken to lose adherent cells. Cells were washed twice in RPMI, counted and assayed for differentiation markers (NBT reduction assay). Superoxide production was measured as NBT reducing activity as described previously (Ostrem V. K et al. Proc Natl Acad Sci USA 84: 2610-2614, 1987). HL-60 cells at 1×10^6/ml were mixed with an equal volume of freshly prepared solution of phorbol 12-myristate 13-acetate (200 ng/ml) and […] and incubated for 30 min at 37° C. The percentage of cells containing black formazan deposits was determined using a hemacytometer.

SMILES | AFFINITY STUDIES DBP [1] [%] | IN VIVO STUDIES Osteocalcin serum [2] [%] | IN VIVO STUDIES Calcium serum ([2]; mouse, in vivo, ip) [%] | antiproliferative activity, times that of 1α,25(OH)2D3 ([3]; MCF-7 cells) [times] | antiproliferative effect (in words) ([3]; MCF-7 cells) | IN VITRO STUDIES MCF-7 [3] [%] | increase of capacity to inhibit the proliferation of MCF-7 cells on introduction of the 23-yne side chain ([3]; compared with analogue 102) [times] | AFFINITY STUDIES VDR [4] [%] | prodifferentiating effect (in words) [5] | IN VITRO STUDIES HL 60 [5] [%] | IN VIVO STUDIES Calcium urine ([2]; mouse, in vivo, ip) [%] | further reduction of calcemic activity by the 2β counterpart ([2]; mouse, in vivo) [fold] | times more potent than 1α,25(OH)2D3 in vitro ([3]; range over HL 60 differentiation and MCF-7 proliferation, test not specified) [times] | Serum calcium in mice ([2]; mouse, in vivo, ip) [%] | Antiproliferative activity on MCF-7 cells ([3]; percentage activity (at 50% of the dose response) vs 1α,25(OH)2D3 (=100%)) [%]
CC(CC#CC(C)(C)O)C1CCC2C(=CC=C3CC(O)C(C)C(O)C3)CCCC21C (stereo not drawn) [Compound 104, 2α-methyl-19-nor-23-yn-1α,25-dihydroxyvitamin D3] | 4 | 4 | 10 | 100 | very potent | 10500 | 26 | 70 | very potent | 1500 |  |  |  |  | 
CC(CCCC(C)(C)O)C1CCC2C(=CC=C3CC(O)C(C)C(O)C3)CCCC21C (stereo not drawn) [Compound 105, 14-epi-2β-methyl-19-nor-1α,25-dihydroxyvitamin D3] | 7 | 0.8 | 0.4 |  |  | 20 |  | 60 |  | 75 | 0.4 |  |  |  | 
CC(CCCC(C)(C)O)C1CCC2C(=CC=C3CC(O)C(C)C(O)C3)CCCC21C (stereo not drawn) [Compound 106, 14-epi-2α-methyl-19-nor-1α,25-dihydroxyvitamin D3] | 9 | 13 | 13 |  | very potent | 900 |  | 90 | very potent | 600 | 6 |  |  |  | 
CC(CC#CC(C)(C)O)C1CCC2C(=CC=C3CC(O)C(C)C(O)C3)CCCC21C (stereo not drawn) [Compound 107, 14-epi-2β-methyl-19-nor-23-yn-1α,25-dihydroxyvitamin D3] | 0 | 0.8 | 0.4 |  |  | 350 |  | 10 |  | 400 | 1.6 |  |  |  | 
CCC1C(O)CC(=CC=C2CCCC3(C)C2CCC3C(C)CCCC(C)(C)O)CC1O (stereo not drawn) [Compound 109, 2β-ethyl-19-nor-1α,25(OH)2D3] | 9 | 0.8 | 0.4 |  | less active than 1α,25(OH)2D3 | 90 |  | 40 | less active than 1α,25(OH)2D3 | 10 | 0.8 | 16 |  |  | 
CCC1C(O)CC(=CC=C2CCCC3(C)C2CCC3C(C)CCCC(C)(C)O)CC1O (stereo not drawn) [Compound 110, 2α-ethyl-19-nor-1α,25(OH)2D3] | 20 | 13 | 13 |  | very potent | 650 |  | 90 | very potent | 200 | 13 |  | 2 to 6 |  | 
CCC1C(O)CC(=CC=C2CCCC3(C)C2CCC3C(C)CC#CC(C)(C)O)CC1O (stereo not drawn) [Compound 111, 2β-ethyl-19-nor-23-yne-1α,25(OH)2D3] | 0.5 | 0.8 | 0.4 |  |  | 700 |  | 9 |  | 80 | 0.8 |  |  | 0.4 | 700
